Measurements as given in ChEMBL document CHEMBL1201862, “PubChem BioAssay data set” (2004).
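Grown in 96-well plates, cells were treated for 48 hours with each compound at five concentrations. Insufficient inhibition: endpoint recorded as highest concentration tested. GI50 = concentration required for 50% inhibition of growth.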 Activity calls are given as the source filed them. Cut-off read from the data, not from the text of the source: active = GI50 up to about 1.1 µM and inactive = higher.

Assays:
Experiment in all cases: NCI tumour cell line growth inhibition, 48 h
[1] = test system: MOLT-4
[2] = test system: COLO 205
[3] = test system: SF-295
[4] = test system: SF-268
[5] = test system: 786-0
[6] = test system: UACC-62
[7] = test system: SK-MEL-2
[8] = test system: TK-10
[9] = test system: A498
[10] = test system: LOX IMVI
[11] = test system: A549
[12] = test system: SW-620
[13] = test system: HOP-62
[14] = test system: MDA-N
[15] = test system: SK-MEL-28
[16] = test system: RXF 393
[17] = test system: NCI-H226
[18] = test system: OVCAR-4
[19] = test system: OVCAR-3
[20] = test system: SF-539
[21] = test system: HOP-92
[22] = test system: SNB-75
[23] = test system: K562
[24] = test system: PC-3
[25] = test system: UACC-257
[26] = test system: MDA-MB-435
[27] = test system: SK-OV-3
[28] = test system: U-251
[29] = test system: SK-MEL-5
[30] = test system: T47D
[31] = test system: MDA-MB-231
[32] = test system: HCT-15
[33] = test system: HT-29
[34] = test system: Malme-3M
[35] = test system: CCRF-CEM
[36] = test system: SNB-19
[37] = test system: KM12
[38] = test system: UO-31
[39] = test system: HCT-116
[40] = test system: NCI-H23
[41] = test system: OVCAR-8
[42] = test system: DU-145
[43] = test system: M14
[44] = test system: IGROV-1
[45] = test system: ACHN
[46] = test system: SR
[47] = test system: NCI-H522
[48] = test system: SN12C
[49] = test system: HL-60
[50] = test system: HCC 2998
[51] = test system: CAKI-1
[52] = test system: NCI-H460
[53] = test system: NCI/ADR-RES
[54] = test system: MCF7
[55] = test system: OVCAR-5
[56] = test system: Hs-578T
[57] = test system: RPMI-8226
[58] = test system: EKVX

COc1ccc(-c2c(C(C)=O)c(C)n(C3OC(COC(C)=O)C(OC(C)=O)C(OC(C)=O)C3OC(C)=O)c(=S)c2C#N)cc1 (stereo not drawn)
GI50 [1]: 43 µM (inactive) | GI50 [2]: > 100 µM (inactive) | GI50 [3]: 69 µM (inactive) | GI50 [4]: > 100 µM (inactive) | GI50 [5]: 62.1 µM (inactive) | GI50 [6]: 36.6 µM (inactive) | GI50 [7]: 29.9 µM (inactive) | GI50 [8]: > 100 µM (inactive) | GI50 [9]: > 100 µM (inactive) | GI50 [10]: 21.9 µM (inactive) | GI50 [11]: 66.2 µM (inactive) | GI50 [12]: 72.8 µM (inactive) | GI50 [13]: > 100 µM (inactive) | GI50 [14]: > 100 µM (inactive) | GI50 [15]: > 100 µM (inactive) | GI50 [16]: 80.7 µM (inactive) | GI50 [17]: > 100 µM (inactive) | GI50 [18]: 73.1 µM (inactive) | GI50 [19]: > 100 µM (inactive) | GI50 [20]: > 100 µM (inactive) | GI50 [21]: 15 µM (inactive) | GI50 [22]: 75.5 µM (inactive) | GI50 [23]: 68.5 µM (inactive) | GI50 [24]: 45.2 µM (inactive) | GI50 [25]: > 100 µM (inactive) | GI50 [26]: > 100 µM (inactive) | GI50 [27]: > 100 µM (inactive) | GI50 [28]: > 100 µM (inactive) | GI50 [29]: 63.1 µM (inactive) | GI50 [30]: > 100 µM (inactive) | GI50 [31]: 29.1 µM (inactive) | GI50 [32]: > 100 µM | GI50 [33]: > 100 µM (inactive) | GI50 [34]: > 100 µM (inactive) | GI50 [35]: 42.3 µM (inactive) | GI50 [36]: 89.9 µM (inactive) | GI50 [37]: > 100 µM (inactive) | GI50 [38]: 2.15 µM (inactive) | GI50 [39]: 72.1 µM (inactive) | GI50 [40]: > 100 µM (inactive) | GI50 [41]: > 100 µM (inactive) | GI50 [42]: > 100 µM (inactive) | GI50 [43]: > 100 µM (inactive) | GI50 [44]: > 100 µM (inactive) | GI50 [45]: > 100 µM (inactive) | GI50 [46]: > 100 µM (inactive) | GI50 [47]: > 100 µM (inactive) | GI50 [48]: > 100 µM (inactive) | GI50 [49]: 63.5 µM (inactive) | GI50 [50]: > 100 µM (inactive) | GI50 [51]: 28.9 µM (inactive) | GI50 [52]: 81.5 µM (inactive) | GI50 [53]: 71 µM (inactive) | GI50 [54]: > 100 µM (inactive) | GI50 [55]: > 100 µM (inactive)

O=C(O)C1C2C=CC(O2)C1C(=O)NCc1ccncc1 (stereo not drawn)
GI50 [2]: > 100 µM (inactive) | GI50 [3]: > 100 µM (inactive) | GI50 [4]: > 100 µM (inactive) | GI50 [5]: > 100 µM (inactive) | GI50 [6]: > 100 µM (inactive) | GI50 [7]: > 100 µM (inactive) | GI50 [8]: > 100 µM (inactive) | GI50 [56]: > 100 µM (inactive) | GI50 [9]: > 100 µM (inactive) | GI50 [10]: > 100 µM (inactive) | GI50 [11]: > 100 µM (inactive) | GI50 [12]: > 100 µM (inactive) | GI50 [13]: > 100 µM (inactive) | GI50 [14]: > 100 µM (inactive) | GI50 [15]: > 100 µM (inactive) | GI50 [16]: > 100 µM (inactive) | GI50 [17]: > 100 µM (inactive) | GI50 [18]: > 100 µM (inactive) | GI50 [19]: 33.7 µM (inactive) | GI50 [20]: > 100 µM (inactive) | GI50 [21]: > 100 µM (inactive) | GI50 [22]: > 100 µM (inactive) | GI50 [23]: > 100 µM (inactive) | GI50 [24]: > 100 µM (inactive) | GI50 [25]: > 100 µM (inactive) | GI50 [26]: > 100 µM (inactive) | GI50 [27]: > 100 µM (inactive) | GI50 [28]: > 100 µM (inactive) | GI50 [29]: > 100 µM (inactive) | GI50 [30]: > 100 µM (inactive) | GI50 [31]: > 100 µM (inactive) | GI50 [33]: > 100 µM (inactive) | GI50 [34]: > 100 µM (inactive) | GI50 [35]: > 100 µM (inactive) | GI50 [36]: > 100 µM (inactive) | GI50 [37]: > 100 µM (inactive) | GI50 [38]: > 100 µM (inactive) | GI50 [39]: > 100 µM (inactive) | GI50 [41]: > 100 µM (inactive) | GI50 [42]: > 100 µM (inactive) | GI50 [43]: > 100 µM (inactive) | GI50 [44]: > 100 µM (inactive) | GI50 [45]: > 100 µM (inactive) | GI50 [46]: > 100 µM (inactive) | GI50 [47]: > 100 µM (inactive) | GI50 [48]: > 100 µM (inactive) | GI50 [49]: > 100 µM (inactive) | GI50 [51]: > 100 µM (inactive) | GI50 [57]: > 100 µM (inactive) | GI50 [52]: > 100 µM (inactive) | GI50 [54]: > 100 µM (inactive) | GI50 [55]: > 100 µM (inactive) | GI50 [58]: > 100 µM (inactive)
